From article PMC6482291, “Anticonvulsant Activity of Pterostilbene in Zebrafish and Mouse Acute Seizure Tests” (Neurochemical Research, 2019) come the findings set out here.

Holding throughout (type): in vivo
In data set [1] the test system is maximal electroshock seizures. Nature of the data set: MES test (supramaximal stimulation). Conditions: ED50 could not be determined.
Data set [2] has as its system mice. In words: Grip-strength test. Conditions: for Neuromuscular strength: 30 min before test. Here is the method: The acute effect of PTE on the skeletal muscles strength in mice was determined in the grip strength test. The apparatus for this test (BioSeb, Chaville, France) consisted of a steel wire grid (8 × 8 cm) connected to an isometric force transducer. Each mouse was lifted by tail and allowed to grasp the grid with its forepaws and then it was gently pulled backward until its released the grid. The maximal force in newtons (N) exerted by mouse before leaving the grid was recorded. The mean of three consecutive measurements for each animal was calculated and normalized to body weight (mN/g).
Experimental groups consisted of 12 animals. Results obtained in the grip-strength test were compared using one-way ANOVA followed by the Tukey’s post-hoc multiple comparison test.

Data set [3] has as its system mice. In words: Forced swim test. Conditions: PTE 50 to 200 mg/kg ip, data not shown. The protocol: The forced swim test was carried out according to the method described by Porsolt et al. to assess antidepressant properties of PTE. Mice were placed individually in a glass cylinder (25 cm high; 10 cm diameter) containing tap water to a depth of 11 cm. Water was maintained at temperature of 23–25 °C. Mice were permitted to swim for 6 min and duration of their immobility was recorded during the last 4 min of the test by a trained experimenter who was blinded to the treatment. Immobility time was recorded using cumulative stopwatches. Mouse was considered to be immobile when it was floating in the water without struggling and making no attempts to escape, it was making only these movements necessary to keep its head above the water. After each trial, the water in the cylinder was replaced with fresh water. Experimental groups consisted of 10 animals.
Data obtained in the forced swim test were expressed as the mean (in s) + SEM immobility time in each experimental group. Results were analyzed by one-way ANOVA.

Consider `COc1cc(/C=C/c2ccc(O)cc2)cc(OC)c1` [PTE, trans-3,5-dimethoxy-4′-hydroxy-trans-stilbene], for which the “anticonvulsant activity in the MES test” value in data set [1] is “lack of significant anticonvulsant activity”. Besides, the Neuromuscular strength stood at 30.34 ± 1.16 mN/g in the data set on mice [2] (PTE 50 mg/kg ip); 29.14 ± 0.95 mN/g in the data set with mice [2] (PTE 100 mg/kg ip); 28.76 ± 2.16 mN/g with mice [2] (PTE 200 mg/kg ip); 30.39 ± 2.17 mN/g in the data set on mice [2] (PTE 400 mg/kg ip); 30.19 ± 0.97 mN/g in the data set on mice [2] (PTE 600 mg/kg ip); 31.12 ± 1.44 mN/g in the data set with mice [2] (PTE 800 mg/kg ip). For the same molecule, in the data set on mice [2] (PTE 50 to 800 mg/kg ip), the “influence on muscular strength” value is recorded as “did not significantly influence”. In the data set with mice [3], the “immobility time vs control” value is reported as “did not significantly reduce”.
